Test [1] deals with T1, 5-lipoxygenase (Rattus norvegicus, UniProt P12527).
T1 construct: at 3-12×10^7 intact neutrophils per ml; endogenous in cells; host or cells: neutrophils from the pleural exudate of male Wistar-Lewis rats (reversed passive Arthus reaction)
T1 sequence (P12527 1-673): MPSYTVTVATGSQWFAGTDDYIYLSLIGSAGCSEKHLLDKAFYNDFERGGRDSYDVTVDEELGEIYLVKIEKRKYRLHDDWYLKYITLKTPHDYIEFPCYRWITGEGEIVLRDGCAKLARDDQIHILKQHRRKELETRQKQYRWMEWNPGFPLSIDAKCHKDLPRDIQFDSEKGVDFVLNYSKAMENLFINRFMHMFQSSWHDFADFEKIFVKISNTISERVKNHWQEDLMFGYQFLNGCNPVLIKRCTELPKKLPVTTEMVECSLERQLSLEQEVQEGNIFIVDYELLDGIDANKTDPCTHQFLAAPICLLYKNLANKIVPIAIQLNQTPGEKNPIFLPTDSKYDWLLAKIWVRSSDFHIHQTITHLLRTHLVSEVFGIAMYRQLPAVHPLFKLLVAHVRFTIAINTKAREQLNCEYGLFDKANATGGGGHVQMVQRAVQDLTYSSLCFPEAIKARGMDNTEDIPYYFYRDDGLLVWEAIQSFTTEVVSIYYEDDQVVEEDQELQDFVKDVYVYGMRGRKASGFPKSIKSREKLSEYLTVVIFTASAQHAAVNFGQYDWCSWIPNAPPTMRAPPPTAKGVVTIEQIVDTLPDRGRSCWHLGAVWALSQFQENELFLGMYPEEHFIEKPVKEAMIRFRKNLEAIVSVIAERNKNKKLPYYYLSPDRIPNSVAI
The experiment in a line: 5-lipoxygenase activity / arachidonic acid metabolism in rat neutrophils. The format is cell-based. The note with it: compound concentration 5×^10-5 Molar, [14C] arachidonic acid. How it is done: The effect of the compounds of the invention on 5-lipoxygenase activity is determined using rat neutrophils. Male Wistar-Lewis rats are injected intravenously with 5 mg BSA in 0.2 ml pyrogen free saline followed by an intrapleural injection of 500 ug of the IgG fraction of rabbit anti-BSA (Cappel Labs., Lot 17782) in 0.2 ml pyrogen free saline. Injections are made under light ether anesthesia. Four hours later, the pleural cavity exudate consisting of 85 to 95% neutrophils is removed. Neutrophils are isolated from the pleural exudates by centrifugation of 4° C. for 10 min at 200×g. The cell pellet is resuspended in 17 mM Tris HCl buffer, pH 7.2, containing 0.75% NH4 Cl to lyse contaminating erythrocytes followed by centrifugation at 4° C. for 5 min at 200×g. The pelleted neutrophils are rewashed in 50 mM Tris HCl, pH 7.4, containing 100 mM NaCl, followed by the same centrifugation. The cell pellet is resuspended in 50 mM Tris HCl, pH 7.4, containing 100 mM NaCl and 1 mM CaCl2, at 3-12×10^7 intact neutrophils per ml.
Solutions of compounds in methanol are dried, then resuspended in the cell suspension for 4 min. Arachidonic acid metabolism is determined by incubating 0.1 ml of this suspension with 40 uM [×^14 C] arachidonic acid (AA) (Amersham, 59 Ci/mole), in the presence of 0.1% BRIJ 56 and 10 uM A23187. Arachidonic acid metabolism as well as the various drug and reagent abbreviations are described in detail in Arch. Dermatol, Vol. 119, pages 541 to 547 (July 1983), the teachings of which are incorporated herein by reference. Assays run in triplicate are initiated by adding cells with inhibitor to a film of the BRIJ 56, arachidonic acid and A23187 at 37° C. After one minute, reactions are terminated by the addition of 2.4 ml of a chloroform:methanol (1:1 v/v) mixture and 0.9 ml of 0.1% formic acid. […] Products, leukotriene B4 (LTB4), 12-hydroxy heptadecatrienoic acid (HHT) and 5-hydroxy icosatetraenoic acid (5-HETE), are located by autoradiography and appropriate regions of the thin layer plates are scraped and counted in a liquid scintillation counter. […]

Test [2] has as its system Male Lewis inbred albino rats. The experiment in a line: Reversed Passive Arthus Reaction (RPAR), paw volume. The note with it: po, rat paw RPAR. The test is classed as in vivo. As to the method:
Reversed Passive Arthus Reaction (RPAR) Animals, Materials and Methods
Male Lewis inbred albino rats weighing 180-220 grams obtained from Charles River Breeding Laboratories are used in these experiments. The rats are housed 3 animals/cage and food and water are allowed ad libitum.
The animals are numbered 1-3 in each cage and color marked for identification purposes.
All reagents and drugs are prepared just prior to the study. Crystallized and lyophilized bovine serum albumin (BSA), obtained from Sigma Chemical Company, is solubilized without shaking in cold sterile pyrogen free saline (10 mg/ml). Lyophilized anti-bovine serum albumin (IgG Fraction), obtained from Cappel Laboratories, is suspended in sterile distilled water and diluted with cold pyrogen free saline (PFS) just prior to use. The final concentration of anti-bovine serum albumin is 0.5 mg/ml of PFS. Both BSA and anti-BSA solutions are iced during use. Drugs are suspended or solubilized in an aqueous solution of methyl cellulose (MC) with a homogenizer just prior to administration.
Groups of animals (6/group) are dosed with drug in MC by gavage one hour prior to sensitization with BSA. […] The volume of mercury displaced is converted to weight and recorded. […] Paw volumes are also recorded with a plethysmograph during the development of the inflammation at 2 and 4 hours post-challenge.

Test [3] deals with pleural cavity of rats. The test is described as follows: reverse passive Arthus reaction in the pleural cavity of rats. The note with it: po, rat pleural cavity RPAR. The test is classed as in vivo. The source says:
Another procedure for testing for acute antiinflammatory activity measures the reverse passive Arthus reaction in the pleural cavity of rats as described in Myers et al., Inflammation, Vol. 9, No. 1, 1985, pp. 91-98.

Each structure is given as a SMILES string.

For the molecule `O=c1c2c(c3cccnc3n1-c1ccccc1)N(c1ccccc1)CC2` [1,2,3,5-tetrahydro-1,5-diphenyl-4H-pyrrolo[3,2-c][1,8]napthyridin-4-one], in test [1], the “inhibition of HETE production” value is ~60%, the “inhibition of HHT production” value was “about 40%” and the “inhibition of LTB4 production” value was ~60%.
With `O=c1c2c(c3cccnc3n1-c1ccccc1)NCC2` [1,2,3,5-tetrahydro-5-phenyl-4H-pyrrolo[3,2-c][I, 8]napthyridin-4-one], the median effective dose (ED50) in test [2] is ~25 mg/kg; in test [3], < 25 mg/kg.
For `CCOC(=O)N1CCc2c1c1cccnc1n(-c1ccccc1)c2=O` [2,3,4,5-tetrahydro-4-oxo-5-phenyl-1H-pyrrolo[3,2-c][1,8]napthyridine-1-carboxylic acid, ethyl ester], the 50% effective dose (ED50) in test [3] is ~25 mg/kg.

A word on the ED50: it is the dose at which the effect has come halfway, by size or by number of responders.

For the origin of these results see US4996212A, “Antiinflammatory and anti-hyperproliferative compounds” (Schering Corporation, priority 1989, dated 1991).
